Earlier results, collected in paper PMC12114947, “Evaluation of Violacein Metabolic Stability and Metabolite Identification in Human, Mouse, and Rat Liver Microsomes” (Pharmaceutics, 2025).
Like-named read-outs stand apart in the source and are kept apart here.

What was measured:
[1] = set-up: method as in PMID 9408857; conditions: rats; cited from earlier work
[2] = set-up: method as in PMID 9408857; conditions: rabbits; cited from earlier work
[3] = set-up: method as in PMID 9408857; conditions: dogs; cited from earlier work
[4] = set-up: method as in PMID 9408857; conditions: humans; cited from earlier work
[5] = set-up: method as in PMID 38399311; conditions: liver microsomes, rats; cited from earlier work
[6] = set-up: method as in PMID 38399311; conditions: liver microsomes, mice; cited from earlier work
[7] = set-up: method as in PMID 38399311; conditions: liver microsomes, humans; cited from earlier work
[8] = cited from earlier work
[9] = set-up: method as in PMID 12920490, PMID 24002099, PMID 10445386; conditions: based on the human hepatic microsomal pathway; cited from earlier work
[10] = cited from earlier work; remark: listed apart in the source
[11] = cited from earlier work; remark: listed apart in the source
[12] = cited from earlier work; remark: listed apart in the source
[13] = cited from earlier work; remark: listed apart in the source
[14] = cited from earlier work; remark: listed apart in the source

CNS(=O)(=O)Cc1ccc2[nH]cc(CCN(C)C)c2c1 [sumatriptan]
Clearance [1]: 44.7 mL/min/kg | Clearance [2]: 26 mL/min/kg | Clearance [3]: 14 mL/min/kg | Clearance [4]: approximately 1.10 L/h/kg

CCCC(NCC)C(=O)c1ccccc1 (stereo not shown) [N-ethyl pentedrone]
t1/2 [5]: 0.202 h | t1/2 [6]: 3.12 h | t1/2 [7]: 12.8 h

CO[C@H]1O[C@@H]2O[C@@]3(C)CC[C@H]4[C@H](C)CC[C@@H]([C@H]1C)[C@@]24OO3 [artemether]
Clearance ([8]; artemether alone): 281.3 ± 67.3 mL/min/kg | Clearance ([8]; co-administered with pyronaridine): 466.7 ± 36 mL/min/kg

COc1cc(NC(C)CCCN)c2ncccc2c1 (stereo not shown) [primaquine]
Estimated CLint, in vivo [9]: approximately 0.017 mL/min/kg

CCCCN(CCCC)CC(O)c1cc(Cl)cc2c1-c1ccc(Cl)cc1/C2=C/c1ccc(Cl)cc1 (stereo not shown) [lumefantrine]
t1/2 ([10]; antimalarials): 72 to 144 h

C[C@@H]1CC[C@H]2[C@@H](C)C(=O)O[C@@H]3O[C@@]4(C)CC[C@@H]1[C@]32OO4 [artemisinin]
t1/2 ([10]; in vivo): 1 to 2 h

Cc1ncc2n1-c1ccc(Cl)cc1C(c1ccccc1F)=NC2 [midazolam]
CLint, in vivo ([11]; rat): 79.2 mL/min/kg | t1/2 ([11]; rats): about 31 min | CLint, in vivo ([12]; human): 6.67 mL/min/kg | t1/2 ([12]; humans): 1.85 h

NC(Cc1cc(I)c(Oc2cc(I)c(O)c(I)c2)c(I)c1)C(=O)O (stereo not shown) [thyroxine]
CLint, in vitro ([13]; rat 1): 1.08 mL/min/10^6 cells | CLint, in vitro ([13]; rat 2): 0.75 mL/min/10^6 cells | CLint, in vitro ([14]; human donor 1364): 0.61 mL/min/10^6 cells | CLint, in vitro ([14]; human donor Hu1362): 0.56 mL/min/10^6 cells

OC(c1cc(C(F)(F)F)nc2c(C(F)(F)F)cccc12)C1CCCCN1 (stereo not shown) [mefloquine]
Clearance ([8]; in vivo): 0.33 to 0.83 mL/min/kg

CCN(CC)CCCC(C)Nc1ccnc2cc(Cl)ccc12 (stereo not shown) [chloroquine]
Clearance [8]: 1.5 to 1.7 mL/min/kg
